According to ChEMBL document CHEMBL2034954, “Synthesis and antimycobacterial activity of novel 1,3-dimethylisocyanurate derivatives” (Eur J Med Chem, 2012):
Calls of active or inactive are those of the source. The calls are words filed in the database; no cut-off is given here.

Assays:
[1] = tested on: Mycobacterium tuberculosis; test: Antitubercular activity against multidrug-resistant Mycobacterium tuberculosis clinical isolate at 1 ug/mL by radiometric growth assay; assay type: functional, organism-based
[2] = tested on: Mycobacterium tuberculosis; test: Antitubercular activity against multidrug-resistant Mycobacterium tuberculosis clinical isolate at 10 ug/mL by radiometric growth assay; assay type: functional, organism-based
[3] = tested on: Mycobacterium tuberculosis; test: Antitubercular activity against multidrug-resistant Mycobacterium tuberculosis clinical isolate assessed as number of colonies at 1 ug/mL by radiometric growth assay; assay type: functional
[4] = tested on: Mycobacterium tuberculosis; test: Antitubercular activity against multidrug-resistant Mycobacterium tuberculosis clinical isolate assessed as number of colonies at 10 ug/mL by radiometric growth assay; assay type: functional
[5] = tested on: Mycobacterium tuberculosis; test: Antitubercular activity against multidrug-resistant Mycobacterium tuberculosis clinical isolate at 80 ug/mL by radiometric growth assay; assay type: functional, organism-based
[6] = tested on: Mycobacterium tuberculosis; test: Antitubercular activity against multidrug-resistant Mycobacterium tuberculosis clinical isolate at 40 ug/mL by radiometric growth assay; assay type: functional, organism-based

In the case of `NNC(=O)c1ccncc1` [ISONIAZID], the Activity [1] is reported as “inactive” and the Activity [2] is reported as “inactive”.

With `CC1COc2c(N3CCN(C)CC3)c(F)cc3c(=O)c(C(=O)O)cn1c23` (configuration not stated) the Activity [2] was “inactive”.

Work on `Cn1c(=O)n(C)c(=O)n(CCCCC[S+]([O-])CC(=O)NN)c1=O` (configuration not stated) yielded a CFU [3] of 15 and a CFU [4] of 10.

In the case of `CO[C@H]1/C=C/O[C@@]2(C)Oc3c(C)c(O)c4c(O)c(c(/C=N/N5CCN(C)CC5)c(O)c4c3C2=O)NC(=O)/C(C)=C\C=C\[C@H](C)[C@H](O)[C@@H](C)[C@@H](O)[C@@H](C)[C@H](OC(C)=O)[C@@H]1C`, the Activity [5] is reported as “inactive” and the Activity [6] is reported as “inactive”.
